According to patent publication US20100093863A1, “USE OF CITRULLINE FOR PREVENTING AN INCREASE IN PROTEIN CARBONYLATION AND FOR TREATING DISEASES RESULTING THEREFROM” (UNIVERSITE PARIS DESCARTESURE, priority 2007, published 2010):

Columns and labels:
[1] = tested on: carbonylation of the cerebral proteins; test: Carbonylation of cerebral proteins (DNPH assay, brain) in elderly rats; format: in vivo, Sprague-Dawley rats
Description: (§1) Male Sprague-Dawley rats (Charles River Laboratoires, L′Arbresles, France) aged 25 months are placed in individual cages in a thermostatically-controlled atmosphere (23°±1° C.), and subjected to a 12-hour light-darkness cycle (darkness from 8 h to 20 h). The manager of the programme is authorized (no. 75.522) by the Ministry of Agriculture and Forestry to carry out this type of experiment. Moreover, the use and the treatment of the laboratory animals comply with legislation (D2001-486) and are in accordance with European legislation (Official Journal of the European Community L358 Dec. 18, 1986).
(§2) The rats are acclimatized for 2 weeks during which spontaneous food consumption is measured. […]
AANE group (n=4): the animals receive a standard diet rendered isonitrogenous compared with that of the CIT group by the addition of non-essential amino acids (alanine, asparagine, glycine, serine, histidine, and proline in equimolar quantities) for 1 month. […]
The processes of oxidation of the proteins affecting the structure of the amino acids which comprise them are complex and all give rise to the formation of carbonyl groups. For this reason it was decided to carry out an overall evaluation of the oxidation of the muscle proteins by quantifying the carbonylated derivatives from a sample of 1 g of brain. […] One of the cups serves as a blank and the other to quantify the carbonyl groups. […]

[2] = tested on: carbonylation of muscle proteins; test: Carbonylation of muscle proteins (DNPH assay, tibialis anterior) in malnourished-renourished rats; format: in vivo, Sprague-Dawley rats; details: rats aged 19 months, 12 weeks restricted diet, renourished one week with diet enriched with citrulline (5 g/kg/d); FIG. 1 column 4 versus column 3
Description: as §1, with “L'Arbresles,” for “L′Arbresles,”, “19” for “25”, “C.)” for “C.),”, “12-h” for “12-hour”
as §2
The processes of oxidation of the proteins affecting the structure of the amino acids which comprise them are complex and all give rise to the formation of carbonyl groups. For this reason it was decided to carry out an overall evaluation of the oxidation of the muscle proteins by quantifying the carbonylated derivatives from a sample of 300 mg of tibialis anterior. […] The solubilized proteins are separated into two equal fractions in order to have two cups containing the same quantity of proteins (1-1.5 mg/ml). One of the cups serves as a blank and the other to quantify the carbonyl groups. […]

NC(=O)NCCCC(N)C(=O)O (stereo not drawn) [citrulline, 2-amino-5-(carbamoylamino)pentanoic acid]
Carbonylated proteins ([1]; brain of rats aged 25 months, enriched standard diet for 1 month (CIT 1 g/kg/d; AANE isonitrogenous), Average ± ASD): 164 ± 12 µmol/g
decrease in the carbonylation of the cerebral proteins ([1]; elderly healthy rats, diet enriched with CIT (1 g/kg/d, 1 month) versus AANE group): ~10%
increase in the carbonylation of muscle proteins accompanying malnutrition-renutrition [2]: this phenomenon disappears completely
